Source: patent publication US20240025913A1, “TERTIARY CARBOXAMIDE COMPOUNDS” (Vivace Therapeutics, Inc., priority 2020, published 2024)

These molecules were tested on 8×TBD luciferase reporter in HEK293T cells (assay: YAP Reporter Assay (firefly luciferase)). Conditions: Homo sapiens, HEK-293T; HEK293T cells stably transfected with 8×TBD luciferase reporter and pRLTK; 24-hr incubation; starting from 3 μM, 1:3 dilution, 10 points.
Format: cell-based
Method: HEK293T cells stably transfected with 8×TBD luciferase reporter and pRLTK in 384-well plates were treated with the test compounds, starting from 3 μM (final concentration in assay plate), 1:3 dilution, and 10 points in quadruplicates. Post 24-hr incubation with compounds at 37° C. and 5% CO2, cells were lysed and 8×TBD-driven firefly luciferase and control TK-driven renilla luciferase activities were measured using Promega Dual-Luciferase Reporter Assay System.
Reagents: The reagents used for this study are: DMEM: Invitrogen #11960077, Dual-Glo Luciferase Assay System: Promega-E2980, Puromycin Dihydrochloride: Invitrogen-A1113803, 384-well plate: PerkinElmer-6007480, L-GLUTAMINE: Invitrogen-25030164, Hygromycin B: Invitrogen-10687010, and Penicillin-Streptomycin: Merk-TMS-AB2-C
Media: The media used for this assay were: Culture Medium: DMEM+1 ug/mL puromycin+200 ug/mL hygromycin (with 10% FBS+1 mM L-glutamine); and Assay Medium: DMEM (with 10% FBS+1 mM L-glutamine+1×P/S).
Cell Plating: The appropriate media was warmed at 37° C. by water bath: Culture Medium, Assay Medium, 1*D-PBS, 0.05% trypsin-EDTA. The cells were trypsinized after removing all media, then washed with 1*sterile D-PBS and then with 2 ml 0.05% trypsin-EDTA. The cells were then incubated at RT for one minute. Then 10 ml/75 cm2 flask Assay Medium was added to each flask. Using a 10 ml pipette, the cells were then gently resuspended in the media, until the clumps completely disappeared. The cells were then transferred into 50 ml centrifuge tubes and were centrifuged at 800 rpm for 5 mins. The medium was removed and the cells were resuspended with Assay Medium. An aliquot of cells was used to count the cell density (cells/ml). The cell suspension was then diluted with Assay Medium to a concentration of 6×10^4 cells/ml. 50 ul cells suspension was then plated to 384-well plate (PerkinElmer-6007480), 3×10^3 cells/well and the cells were incubated in an incubator at 37° C., 5% CO2.
Compound Treatment: In the afternoon (incubation of the plate with 3-4 hrs), the test compounds were added by Echo, starting from 3 uM (final concentration in the assay plate), 1:3 dilution, 10 points, quadruplicates. The plate was placed at 37° C., 5% CO2 incubator for 24 hrs.
Detection: The Dual-Glo Luciferase Reagent was prepared by transferring the contents of one bottle of Dual-Glo Luciferase Buffer to one bottle of Dual-Glo Luciferase Substrate to create the Dual-G Luciferase Reagent. Mixing was performed by inversion until the substrate was thoroughly dissolved. After mixing, the reagent was aliquoted into 15 ml tubes. In the afternoon (24 hrs post compound treatment), the DMEM+ medium in the 384 well plates were aspirated by Microplate Washer.
Measuring firefly luciferase activity: 20 ul Dual-Glo Luciferase Reagent was added to the 384-well plates. The plates were protected from light to prevent interference with the assay. The plates were shaken for […] followed centrifuging plates at 1000 rpm for 30 seconds. After waiting at least 10 minutes, the firefly luminescence was measured by Envision.
Measuring renilla luciferase activity: 20 ul Stop-Glo Reagent was added to the 384-well plates. The plates were shaken for […] and then centrifuged at 1000 rpm for 30 seconds. After waiting at least 10 minutes, the renilla luminescence was measured by Envision.
Compound IC50 and maximum inhibition on the firefly luciferase and renilla luciferase activities were reported separately.
In the case of `O=C(c1ccc2c(Oc3ccc(C(F)(F)F)cc3)cccc2c1)N1CC(Nc2ccccn2)C1` [Compound 39, (3-(Pyridin-2-ylamino)azetidin-1-yl)(5-(4-(trifluoromethyl)phenoxy)naphthalen-2-yl)methanone], the IC50 is reported as 0.1 to 1 µM. `CC(C)NC1CN(C(=O)c2ccc3c(Oc4ccc(C(F)(F)F)cc4)cccc3c2)C1` [Compound 28, (3-(Isopropylamino)azetidin-1-yl)(5-(4-(trifluoromethyl)phenoxy)naphthalen-2-yl)methanone] was tested, and the IC50 was ≤ 0.1 µM. In the case of `NCC1CCN(C(=O)c2ccc3c(Oc4ccc(C(F)(F)F)cc4)cccc3c2)C1` (centres unmarked) [Compound 8, (3-(Aminomethyl)pyrrolidin-1-yl)(5-(4-(trifluoromethyl)phenoxy)naphthalen-2-yl)methanone], the IC50 is reported as ≤ 0.1 µM. `COCCNCC1CN(C(=O)c2ccc3c(Oc4ccc(C(F)(F)F)cc4)cccc3c2)C1` [Compound 35, (3-(((2-Methoxyethyl)amino)methyl)azetidin-1-yl)(5-(4-(trifluoromethyl)phenoxy)naphthalen-2-yl)methanone] showed an IC50 of 0.1 to 1 µM. In the case of `O=C(c1ccc2c(Oc3ccc(C(F)(F)F)cc3)cccc2c1)N1CC2(CN(CC(F)F)C2)C1` [Compound 24, (6-(2,2-Difluoroethyl)-2,6-diazaspiro[3.3]heptan-2-yl)(5-(4-(trifluoromethyl)phenoxy)naphthalen-2-yl)methanone], the IC50 is reported as 0.1 to 1 µM. `CC(=O)NCC1CN(C(=O)c2ccc3c(Oc4ccc(C(F)(F)F)cc4)cccc3c2)C1` [Compound 16, N-((1-(5-(4-(trifluoromethyl)phenoxy)-2-naphthoyl)azetidin-3-yl)methyl)acetamide] was tested, and the IC50 was ≤ 0.1 µM. With `CN1CC2(C1)CN(C(=O)c1ccc3c(Oc4ccc(C(F)(F)F)cc4)cccc3c1)C2` [Compound 18, (6-Methyl-2,6-diazaspiro[3.3]heptan-2-yl)(5-(4-(trifluoromethyl)phenoxy)naphthalen-2-yl)methanone] the IC50 was 0.1 to 1 µM. `CC(=O)NC1CN(C(=O)c2ccc3c(Oc4ccc(C(F)(F)F)cc4)cccc3c2)C1` [Compound 1, N-(1-(5-(4-(Trifluoromethyl)phenoxy)-2-naphthoyl)azetidin-3-yl)acetamide] was tested, and the IC50 was ≤ 0.1 µM. With `O=C(c1ccc2c(Oc3ccc(C(F)(F)F)cc3)cccc2c1)N1CC(O)C1` [Compound 15, (3-Hydroxyazetidin-1-yl)(5-(4-(trifluoromethyl)phenoxy)naphthalen-2-yl)methanone] the IC50 was ≤ 0.1 µM. In the case of `CN(C)C(=O)c1ccc2c(Oc3ccc(C(F)(F)F)cc3)cccc2c1` [Compound 42, N,N-dimethyl-5-(4-(trifluoromethyl)phenoxy)naphthalene-2-carboxamide], the IC50 is reported as 0.1 to 1 µM. Work on `COCCN1CC2(C1)CN(C(=O)c1ccc3c(Oc4ccc(C(F)(F)F)cc4)cccc3c1)C2` [Compound 22, (6-(2-Methoxyethyl)-2,6-diazaspiro[3.3]heptan-2-yl)(5-(4-(trifluoromethyl)phenoxy)naphthalen-2-yl)methanone] yielded an IC50 of 0.1 to 1 µM. With `CC(C)N1CC2(CN(C(=O)c3ccc4c(Oc5ccc(C(F)(F)F)cc5)cccc4c3)C2)C1` [Compound 20, (6-Isopropyl-2,6-diazaspiro[3.3]heptan-2-yl)(5-(4-(trifluoromethyl)phenoxy)naphthalen-2-yl)methanone] the IC50 was 0.1 to 1 µM. `NC1CCN(C(=O)c2ccc3c(Oc4ccc(C(F)(F)F)cc4)cccc3c2)CC1` [Compound 4, (4-Aminopiperidin-1-yl)(5-(4-(trifluoromethyl)phenoxy)naphthalen-2-yl)methanone] was tested, and the IC50 was ≤ 0.1 µM. In the case of `CCNCC1CN(C(=O)c2ccc3c(Oc4ccc(C(F)(F)F)cc4)cccc3c2)C1` [Compound 33, (3-((Ethylamino)methyl)azetidin-1-yl)(5-(4-(trifluoromethyl)phenoxy)naphthalen-2-yl)methanone], the IC50 is reported as 0.1 to 1 µM. `O=C(c1ccc2c(Oc3ccc(C(F)(F)F)cc3)cccc2c1)N1CCNCC1` [Compound 2, Piperazin-1-yl(5-(4-(trifluoromethyl)phenoxy)naphthalen-2-yl)methanone] showed an IC50 of 1 to 3 µM. In the case of `CCNC1CN(C(=O)c2ccc3c(Oc4ccc(C(F)(F)F)cc4)cccc3c2)C1` [Compound 27, (3-(Ethylamino)azetidin-1-yl)(5-(4-(trifluoromethyl)phenoxy)naphthalen-2-yl)methanone], the IC50 is reported as 0.1 to 1 µM. `O=C(c1ccc2c(Oc3ccc(C(F)(F)F)cc3)cccc2c1)N1CC2(CNC2)C1` [Compound 11, (2,6-Diazaspiro[3.3]heptan-2-yl)(5-(4-(trifluoromethyl)phenoxy)naphthalen-2-yl)methanone] showed an IC50 of 0.1 to 1 µM. Work on `O=C(c1ccc2c(Oc3ccc(C(F)(F)F)cc3)cccc2c1)N1CC2(CN(CCF)C2)C1` [Compound 23, (6-(2-Fluoroethyl)-2,6-diazaspiro[3.3]heptan-2-yl)(5-(4-(trifluoromethyl)phenoxy)naphthalen-2-yl)methanone] yielded an IC50 of 0.1 to 1 µM. In the case of `CNCC1CN(C(=O)c2ccc3c(Oc4ccc(C(F)(F)F)cc4)cccc3c2)C1` [Compound 25, (3-((Methylamino)methyl)azetidin-1-yl)(5-(4-(trifluoromethyl)phenoxy)naphthalen-2-yl)methanone], the IC50 is reported as 0.1 to 1 µM. With `O=C(c1ccc2c(Oc3ccc(C(F)(F)F)cc3)cccc2c1)N1CC(CNCCF)C1` [Compound 36, (3-(((2-Fluoroethyl)amino)methyl)azetidin-1-yl)(5-(4-(trifluoromethyl)phenoxy)naphthalen-2-yl)methanone] the IC50 was 0.1 to 1 µM. For `O=C(c1ccc2c(Oc3ccc(C(F)(F)F)cc3)cccc2c1)N1CC(CNCCO)C1` [Compound 37, (3-(((2-Hydroxyethyl)amino)methyl)azetidin-1-yl)(5-(4-(trifluoromethyl)phenoxy)naphthalen-2-yl)methanone], the IC50 was ≤ 0.1 µM. With `O=C(c1ccc2c(Oc3ccc(C(F)(F)F)cc3)cccc2c1)N1CC(CNc2ccccn2)C1` [Compound 40, (3-((Pyridin-2-ylamino)methyl)azetidin-1-yl)(5-(4-(trifluoromethyl)phenoxy)naphthalen-2-yl)methanone] the IC50 was ≤ 0.1 µM. `O=C(c1ccc2c(Oc3ccc(C(F)(F)F)cc3)cccc2c1)N1CC(NCCF)C1` [Compound 31, (3-((2-Fluoroethyl)amino)azetidin-1-yl)(5-(4-(trifluoromethyl)phenoxy)naphthalen-2-yl)methanone] was tested, and the IC50 was 0.1 to 1 µM. `CN(C)CC1CN(C(=O)c2ccc3c(Oc4ccc(C(F)(F)F)cc4)cccc3c2)C1` [Compound 14, (3-((Dimethylamino)methyl)azetidin-1-yl)(5-(4-(trifluoromethyl)phenoxy)naphthalen-2-yl)methanone] gave an IC50 of 0.1 to 1 µM. For `CN(C#N)C(=O)c1ccc2c(Oc3ccc(C(F)(F)F)cc3)cccc2c1` [Compound 43, N-cyano-N-methyl-5-(4-(trifluoromethyl)phenoxy)-2-naphthamide], the IC50 was ≤ 0.1 µM. In the case of `CCN1CC2(C1)CN(C(=O)c1ccc3c(Oc4ccc(C(F)(F)F)cc4)cccc3c1)C2` [Compound 19, (6-Ethyl-2,6-diazaspiro[3.3]heptan-2-yl)(5-(4-(trifluoromethyl)phenoxy)naphthalen-2-yl)methanone], the IC50 is reported as 0.1 to 1 µM. With `O=C(c1ccc2c(Oc3ccc(C(F)(F)F)cc3)cccc2c1)N1CC2(CN(CCO)C2)C1` [Compound 21, (6-(2-Hydroxyethyl)-2,6-diazaspiro[3.3]heptan-2-yl)(5-(4-(trifluoromethyl)phenoxy)naphthalen-2-yl)methanone] the IC50 was 0.1 to 1 µM. `NCC1CN(C(=O)c2ccc3c(Oc4ccc(C(F)(F)F)cc4)cccc3c2)C1` [Compound 7, (3-(Aminomethyl)azetidin-1-yl)(5-(4-(trifluoromethyl)phenoxy)naphthalen-2-yl)methanone] was tested, and the IC50 was ≤ 0.1 µM. `CN(C)C1CN(C(=O)c2ccc3c(Oc4ccc(C(F)(F)F)cc4)cccc3c2)C1` [Compound 12, (3-(Dimethylamino)azetidin-1-yl)(5-(4-(trifluoromethyl)phenoxy)naphthalen-2-yl)methanone] gave an IC50 of 1 to 3 µM.
